Results from paper PMC3655251, “Urea Output by L3 Teladorsagia circumcincta and some Properties of Two Urea Producing Enzymes” (Iranian Journal of Parasitology, 2013).

Assays:
[1] = test system: T1, arginine amidinohydrolase; experiment: coupled urease / glutamate dehydrogenase assay, NADH oxidation at […] nm; format: biochemical, Teladorsagia circumcincta; conditions: L3 homogenate, 100 mM phosphate buffer, 30 °C, no metal added; read-out: apparent K m
T1 construct: native enzyme in crude homogenate of L3 larvae, not purified

[2] = test system: T2, creatine amidinohydrolase; experiment: as above; format: biochemical, Teladorsagia circumcincta; conditions: L3 homogenate, 100 mM phosphate buffer, 30 °C, no metal added; read-out: apparent K m
T2 construct: native activity in crude homogenate of L3 larvae, not purified; no nematode gene homologue found by the authors

| SMILES | Km [1] | Km [2] |
| --- | --- | --- |
| N=C(N)NCCC[C@H](N)C(=O)O [arginine] | 700 ± 200 µM | – |
| CN(CC(=O)O)C(=N)N [creatine] | – | 1100 ± 100 µM |
